Values after ≈ are worked out from the molar mass of the structure shown.

The conditions of this series: buffer; pH 7.4; 200.0 µM.
Consider `Cc1ccc(CNC(=O)Nc2ccccc2)c(C)c1`, for which the kinetic solubility turned out to be 0.7 µg/mL (≈ 2.75 µM).

Consider `CC(C)[C@H](NC(=O)c1ccccc1)C(=O)OCC(=O)NCc1ccc2c(c1)OCO2`, for which the kinetic solubility was more than 61.9 µg/mL.

The compound `CCCCn1c(N)c(C(=O)NCc2cccs2)c2nc3ccccc3nc21` returned a solubility (kinetic) of 1.6 µg/mL (≈ 4.22 µM).

On to `CCCC(=O)Nc1cc(C)c(NC(=O)c2ccco2)cn1`, for which the kinetic solubility was determined as 42.8 µg/mL (≈ 149 µM). This solubility kinetic is about 27-fold higher than that of the compound before.

Regarding `CC(C)C(CCNC1CCN(C)CC1)c1ccc(Cl)cc1` (configuration not stated), the solubility (kinetic) came to 33.5 µg/mL (≈ 108 µM). This solubility kinetic and that of the compound before are within 1.5-fold of each other.

Compound `O=C(COC(=O)c1ccccc1Cl)NCc1ccco1` gave a kinetic solubility of more than 44.1 µg/mL.

Compound `CC(=O)Nc1c(-c2ccc(Cl)cc2)c(=O)c2ccccc2n1C` returned a kinetic solubility of 14.8 µg/mL (≈ 45.3 µM).

The compound `CCOc1cc(C(=O)Nc2cccnc2)cc(OCC)c1OCC` registered a solubility (kinetic) of 47.3 µg/mL (≈ 143 µM).

`Cc1cc(CNC(=O)c2cccc([N+](=O)[O-])c2)c2ccccc2n1`: the kinetic solubility came to 2.8 µg/mL (≈ 8.71 µM). This solubility kinetic lies about 17-fold lower than the previous one.

For `O=C(COC(=O)c1ccccc1C(F)(F)F)NC(=O)NCc1ccco1`, the solubility (kinetic) turned out to be 19.5 µg/mL (≈ 52.7 µM).

As for `CSCCC(NC(=O)c1ccco1)c1nc2ccccc2[nH]1` (configuration not stated), the kinetic solubility was more than 47.3 µg/mL.

For the compound `COc1cccc(C2(C)NC(=O)N(CC(=O)Nc3ccc(N4CCOCC4)cc3)C2=O)c1` (configuration not stated), the kinetic solubility is 57.7 µg/mL (≈ 132 µM).

With `O=C(Nc1ccsc1C(=O)O)c1ccccc1`, the solubility (kinetic) was more than 37.1 µg/mL.

Take `CCNC(=S)NNC(=O)c1nn(C)c(C)c1Cl`: the solubility (kinetic) is more than 41.4 µg/mL.

In the case of `Cc1cc(NC(=O)c2cc(C(C)(C)C)oc2C)no1`, the kinetic solubility is 0.9 µg/mL (≈ 3.43 µM).

`O=C(NCCCCNC(=O)c1ccccc1F)c1ccccc1F` gave a solubility (kinetic) of more than 49.9 µg/mL.

Compound `COc1cccc(-c2nc(NCc3cccnc3)c3ccccc3n2)c1O` came in with a solubility (kinetic) of 0.3 µg/mL (≈ 0.837 µM).

With `O=C(COC(=O)/C=C/c1ccc(Cl)cc1Cl)NCc1ccco1`, the solubility (kinetic) is 5.9 µg/mL (≈ 16.7 µM).

For the compound `CCn1c(=O)c(C(=O)Nc2ncccc2O)c(O)c2ccccc21`, the solubility (kinetic) was 0.9 µg/mL (≈ 2.77 µM). Against the preceding compound, the solubility kinetic is about 6.6-fold lower.

Compound `O=C1NC2=C(C(=O)CCC2)C(c2cccc([N+](=O)[O-])c2)N1` (configuration not stated) came in with a solubility (kinetic) of more than 43.1 µg/mL.

Take `Oc1cccnc1Sc1cccc(C(F)(F)F)c1`: the solubility (kinetic) amounted to 38.2 µg/mL (≈ 141 µM).

Compound `CC(NC(=S)NC1CCCCC1)c1ccccc1` (configuration not stated) gave a kinetic solubility of 36.1 µg/mL (≈ 138 µM).

For the compound `Cc1ccc(-n2c(=O)c3ccccc3n(CC(=O)C(C)(C)C)c2=O)cc1`, the kinetic solubility stood at 7.7 µg/mL (≈ 22 µM).

The compound `C/C(=N\NC(=O)c1cccc([N+](=O)[O-])c1)c1ccncc1` registered a kinetic solubility of more than 42.6 µg/mL.

Compound `O=c1[nH]c(/C=C/c2cccc3ccccc23)nc2ccccc12` registered a kinetic solubility of 2.1 µg/mL (≈ 7.04 µM).

`COc1ccc(OC)c(NC(=O)COC(=O)[C@H](Cc2ccccc2)NC(=O)c2ccco2)c1` showed a solubility (kinetic) of 5.7 µg/mL (≈ 12.6 µM).

On to `Cc1ccc(NC(=S)N(Cc2ccccc2)C(C)C)cc1`, for which the solubility (kinetic) was found to be 7.6 µg/mL (≈ 25.5 µM).

In the case of `Cc1ccccc1CSCC(=O)Nc1ccccc1Br`, the kinetic solubility is 4.5 µg/mL (≈ 12.8 µM).

In the case of `COc1ccc(S(=O)(=O)NCCCn2ccnc2)cc1Cl`, the kinetic solubility is more than 49.5 µg/mL.

`COCc1cc(C)nc(NC2CC(C)(C)NC(C)(C)C2)c1C#N` came in with a solubility (kinetic) of more than 47.5 µg/mL.

Consider `Cc1ccc(C(=O)NCC(=O)N2CCCCCC2)cc1`, for which the solubility (kinetic) was more than 41.2 µg/mL.

In the case of `CCN(C(=O)COc1ccc2ccc(=O)oc2c1)C1CCCCC1`, the kinetic solubility was more than 49.4 µg/mL.

For the compound `Cc1ccc(CNC(=O)CCSCc2ccccc2F)cc1`, the solubility (kinetic) amounted to 11.8 µg/mL (≈ 37.2 µM).

In turn, `COc1ccc(S(=O)(=O)NCCCN2CCCC2=O)cc1OC` gave a kinetic solubility of 47.4 µg/mL (≈ 138 µM). Against the preceding compound, the solubility kinetic is about 4-fold higher.

For `CC(C)C1N(C(=O)N(C)C)CCN1S(=O)(=O)c1ccccc1` (configuration not stated), the kinetic solubility was more than 48.8 µg/mL.

With `COC(=O)c1cccc(NC(=O)CCNC(=O)c2ccco2)c1`, the kinetic solubility is more than 47.4 µg/mL.

As to `Cc1ccc(C(=O)NCC(=O)Nc2cc(C)ccn2)cc1`, the kinetic solubility is more than 42.5 µg/mL.

Turning to `O=C(NCCCN1CCCC1=O)C1CCCO1` (configuration not stated), the kinetic solubility was found to be 35.2 µg/mL (≈ 146 µM).

In turn, `Cc1cc(C)c(SCCc2ccncc2)c(C)c1` came in with a solubility (kinetic) of 3.1 µg/mL (≈ 12 µM).

Regarding `CC(OC(=O)c1cccc(O)c1)C(=O)N(C)Cc1ccccc1` (configuration not stated), the kinetic solubility is more than 47 µg/mL.

In turn, `COc1ccc(CCNC(=O)COC(=O)/C=C/c2ccc3c(c2)OCO3)cc1OC` displayed a kinetic solubility of 12.7 µg/mL (≈ 30.7 µM).

With `Nc1c(C(=O)OCC(=O)NCc2ccccc2)[nH]c(=O)[nH]c1=O`, the solubility (kinetic) was found to be 28.9 µg/mL (≈ 90.8 µM).

With `CN(CC(=O)NCCN1CCOCC1)S(=O)(=O)c1ccc(Cl)cc1`, the solubility (kinetic) was more than 56.4 µg/mL.

`O=C(O)CC[C@@H](C(=O)O)N1C(=O)c2ccccc2C1=O` returned a kinetic solubility of more than 41.6 µg/mL.

Compound `CC(C)(C)NC(=O)N1CCCN(c2ccc(C(F)(F)F)cn2)CC1` displayed a kinetic solubility of more than 51.7 µg/mL.

The compound `O=C(/C=C/c1ccco1)NCc1ccc2c(c1)OCO2` registered a solubility (kinetic) of more than 40.7 µg/mL.

Regarding `O=C(CSc1nnc(NC(=O)c2c(F)cccc2F)s1)NC1CC1`, the kinetic solubility was more than 55.6 µg/mL.

Take `CCOC(=O)/C=C/C(=O)OCC(=O)Nc1ccc(Cl)cc1Cl`: the solubility (kinetic) was found to be 8.8 µg/mL (≈ 25.4 µM).

The compound `c1ccc2cc(CNCc3cccc4ccccc34)ccc2c1` gave a solubility (kinetic) of 4.1 µg/mL (≈ 13.8 µM).

`Cc1ccc(N2CCN(S(=O)(=O)N3CCCCC3)CC2)cc1C` came in with a kinetic solubility of 1.8 µg/mL (≈ 5.33 µM).

As for `COc1c(Cl)cc(C(=O)NCc2ccco2)cc1Cl`, the kinetic solubility turned out to be 40.2 µg/mL (≈ 134 µM).

With `O=C(Nc1ccc(F)cc1)N1CCN(C(=O)C2CCCO2)CC1` (configuration not stated), the kinetic solubility is more than 48.2 µg/mL.

What is called solubility (kinetic) is solubility judged after dilution from a stock solution rather than from solid.
